# From article PMC7482845, “G10 is a direct activator of human STING” (PLoS ONE, 2020)
# Where two headings read alike, the source gives them in different places.
# How the values were obtained:
# [1] = target: T1, HAQ STING (THP-1 cells) (Homo sapiens, UniProt Q86WV6, G230A/R293Q/R71H); assay: Western blot of pSTING and pIRF3 in THP-1 cells; format: cell-based; conditions: immunoblot, 2 hours
# T1 construct: THP1 cells constitutively express the HAQ variant of human STING; host or cells: THP-1
# Experimental: (§1) 5 x 10^5 cells were seeded in 24-well plates in 500 μl growth medium and stimulated with novel compounds at 10μM. After 2 hours of treatment cells were harvested by centrifugation and cell pellets were lysed in RIPA buffer (20mM Tris-Cl, 150mM NaCl, 0.5mM EDTA, 1% NP40, 0.05% SDS) containing 1x phosphatase inhibitor cocktail 3 (Sigma) and 1x protease inhibitor (Roche) to extract the soluble fraction of protein. 10 μg of extracted protein was electrophoresed in 10% SDS-PAGE gels and transferred onto Immobilon-P membranes (Millipore).
# [2] = test system: ligand binding domain of the R232 variant of STING; set-up: method as in PMID 26646986; conditions: cited from earlier work
# [3] = target: T2, R232.hSTING (CT26 cells) (Homo sapiens, UniProt Q86WV6, H232R); assay: Western blot of Hu-pSTING and pIRF3 in R232.hSTING.CT26 cells; format: cell-based; conditions: immunoblot, 2 hours
# T2 construct: expressed in transfected cells; host or cells: CT26 (murine)
# T2 sequence (Q86WV6 whole entry H232R): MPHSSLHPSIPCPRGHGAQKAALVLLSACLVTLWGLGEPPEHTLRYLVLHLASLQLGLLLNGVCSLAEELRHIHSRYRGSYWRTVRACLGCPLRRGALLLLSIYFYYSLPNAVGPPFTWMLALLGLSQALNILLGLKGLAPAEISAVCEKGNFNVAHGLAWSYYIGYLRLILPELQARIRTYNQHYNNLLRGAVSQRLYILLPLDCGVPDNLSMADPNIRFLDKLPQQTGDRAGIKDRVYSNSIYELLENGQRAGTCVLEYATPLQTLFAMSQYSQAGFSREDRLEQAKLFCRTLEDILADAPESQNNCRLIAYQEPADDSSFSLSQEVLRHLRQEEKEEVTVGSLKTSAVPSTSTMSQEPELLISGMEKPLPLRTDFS
# Experimental: as §1
# [4] = test system: THP1 cells; set-up: method as in PMID 26646986; conditions: cited from earlier work
# [5] = Solubility under assay conditions; format: physicochemical; conditions: under our assay conditions; read-out: maximum solubility
# [6] = target: TBK1 (Homo sapiens, UniProt Q9UHD2); assay: TBK1 kinase assay in the presence of G10; format: biochemical; conditions: S1 Table
# Chain of TBK1 (Q9UHD2 whole entry): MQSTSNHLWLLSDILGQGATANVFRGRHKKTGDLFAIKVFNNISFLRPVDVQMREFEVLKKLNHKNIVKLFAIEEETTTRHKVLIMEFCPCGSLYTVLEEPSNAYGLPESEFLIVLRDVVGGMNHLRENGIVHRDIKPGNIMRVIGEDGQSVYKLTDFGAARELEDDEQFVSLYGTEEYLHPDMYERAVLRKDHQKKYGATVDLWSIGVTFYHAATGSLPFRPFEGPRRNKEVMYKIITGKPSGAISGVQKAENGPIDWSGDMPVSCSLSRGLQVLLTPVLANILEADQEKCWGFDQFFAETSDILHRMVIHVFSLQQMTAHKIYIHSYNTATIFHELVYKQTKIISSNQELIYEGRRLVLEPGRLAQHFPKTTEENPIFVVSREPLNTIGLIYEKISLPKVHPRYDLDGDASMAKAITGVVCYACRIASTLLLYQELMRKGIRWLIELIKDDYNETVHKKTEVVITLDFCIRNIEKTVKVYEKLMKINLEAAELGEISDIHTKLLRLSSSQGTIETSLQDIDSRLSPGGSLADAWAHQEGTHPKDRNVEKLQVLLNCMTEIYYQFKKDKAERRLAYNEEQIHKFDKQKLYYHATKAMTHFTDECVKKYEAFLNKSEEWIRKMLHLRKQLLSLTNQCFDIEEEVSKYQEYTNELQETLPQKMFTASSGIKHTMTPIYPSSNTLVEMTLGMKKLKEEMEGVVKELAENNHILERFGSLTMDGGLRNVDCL
# [7] = target: T3, mSTING (CT26 cells overexpressing mSTING) (Mus musculus, UniProt Q3TBT3); assay: Western blot of pSTING and pIRF3 in CT26 cells overexpressing mSTING; format: cell-based; conditions: immunoblot, 2 hours
# T3 construct: expressed in transfected cells; host or cells: CT26
# T3 sequence (Q3TBT3 whole entry): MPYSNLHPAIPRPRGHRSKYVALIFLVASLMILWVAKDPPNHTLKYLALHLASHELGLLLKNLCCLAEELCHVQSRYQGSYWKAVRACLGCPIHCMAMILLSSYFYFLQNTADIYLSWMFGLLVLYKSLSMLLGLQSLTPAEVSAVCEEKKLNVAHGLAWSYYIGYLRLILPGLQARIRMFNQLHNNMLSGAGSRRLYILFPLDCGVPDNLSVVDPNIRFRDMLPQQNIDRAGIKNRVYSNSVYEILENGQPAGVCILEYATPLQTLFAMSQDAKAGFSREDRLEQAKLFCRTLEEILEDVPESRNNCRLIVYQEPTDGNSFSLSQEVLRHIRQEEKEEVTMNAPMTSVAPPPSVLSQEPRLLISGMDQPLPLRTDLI
# Experimental: as §1, with “(Millipore). […] Anti-rabbit HRP label secondary antibody (Abcam) and Clarity Max™ western ECL substrate (Biorad—cat# 1705062) were used for visualization of bands using a BioRad XRS plus imager.” for “(Millipore).”
# [8] = target: HAQ variant of human STING (Homo sapiens, UniProt Q86WV6, G230A/R293Q/R71H); assay: Luciferase (ISRE.ISG reporter) assay in HEK293T cells stably expressing HAQ hSTING; format: cell-based; conditions: ISRE.ISG54 luciferase reporter, 18 hours, compared with R232 and H232
# Chain of HAQ variant of human STING (Q86WV6 whole entry R71H/G230A/R293Q): as the sequence (Q86WV6 whole entry H232R) above, with R71H, G230A, R232H, R293Q counted along it
# From the text: (§2) • a) Stable STING expressing cells. Stable HEK293T STING-expressing cell lines were generated using plasmids purchased from Invivogen, CA, USA, that contain STING cDNA cloned into the pUNO-1 vector under the hEF1-HTLV promoter as well as the Blasticidin selection cassette. The human STING plasmids corresponding to the R232, H232 and HAQ variants were directly procured from Invivogen while the AQ and Q variants were created by mismatch PCR using cDNA from HAQ.STING and R232.STING variants respectively. These vectors were individually transfected into HEK293T cells using Lipofectamine (Invitrogen) and transfected cells were expanded under Blasticidin selection. These cells were further subjected to clonal selection using the limiting dilution method to obtain clonally pure populations of HEK293T cells expressing each of the five human STING variants. Clones with minimal ligand independent activation of STING were chosen for cellular experiments. • b) N-His R232.hSTING HEK293T cells. HEK293T cells stably expressing N-His R232.hSTING were generated by the following described method. N-His R232.hSTING.pcDNA Myc B plasmid was transfected into HEK293T cells using Lipofectamine reagent (Invitrogen) and the transfected cells were selected under Hygromycin. […]
# [9] = target: T4, R232 variant of human STING (Homo sapiens, UniProt Q86WV6, H232R); assay: Luciferase (ISRE.ISG reporter) assay in HEK293T cells stably expressing R232 hSTING; format: cell-based
# T4 construct: the ER fraction from R232.STING transfected HEK293T cells which contained full length STING
# T4 sequence (Q86WV6 whole entry H232R): as the sequence (Q86WV6 whole entry H232R) above
# From the text: • a) Stable STING expressing cells. Stable HEK293T STING-expressing cell lines were generated using plasmids purchased from Invivogen, CA, USA, that contain STING cDNA cloned into the pUNO-1 vector under the hEF1-HTLV promoter as well as the Blasticidin selection cassette. The human STING plasmids corresponding to the R232, H232 and HAQ variants were directly procured from Invivogen while the AQ and Q variants were created by mismatch PCR using cDNA from HAQ.STING and R232.STING variants respectively. These vectors were individually transfected into HEK293T cells using Lipofectamine (Invitrogen) and transfected cells were expanded under Blasticidin selection. These cells were further subjected to clonal selection using the limiting dilution method to obtain clonally pure populations of HEK293T cells expressing each of the five human STING variants. Clones with minimal ligand independent activation of STING were chosen for cellular experiments. • b) N-His R232.hSTING HEK293T cells. HEK293T cells stably expressing N-His R232.hSTING were generated by the following described method. N-His R232.hSTING.pcDNA Myc B plasmid was transfected into HEK293T cells using Lipofectamine reagent (Invitrogen) and the transfected cells were selected under Hygromycin. Stably STING expressing HEK293T cells thus selected were further subjected to single cell clonal selection using the limiting dilution method to obtain a clonally pure population of HEK293T cells expressing the human R232 STING variant.
# […] clonally selected HEK293T-hSTING-Luciferase cells or control HEK293T-Luciferase cells were seeded in 384-well plates in growth medium and stimulated with known STING agonists or novel compounds. […]
# [10] = target: T5, mSTING (wild type CT26 cells) (Mus musculus, UniProt Q3TBT3); assay: Western blot of pSTING and pIRF3 in parent CT26 cells; format: cell-based; conditions: immunoblot (S10 Fig)
# T5 construct: endogenous in cells; host or cells: CT26 (parent line, and the endogenous protein in R232.hSTING.CT26)
# T5 sequence (Q3TBT3 whole entry): as the sequence (Q3TBT3 whole entry) above
# Experimental: as §1, with “(Millipore). […] Anti-rabbit HRP label secondary antibody (Abcam) and Clarity Max™ western ECL substrate (Biorad—cat# 1705062) were used for visualization of bands using a BioRad XRS plus imager.” for “(Millipore).”
# [11] = target: T6, R232 variant of human STING (THP-1-Dual KI-hSTING-R232 cells) (Homo sapiens, UniProt Q86WV6, H232R); assay: Western blot of pSTING and pIRF3 in THP1-R232 knock in cells; format: cell-based; conditions: immunoblot, 2 hours, R232 STING in HAQ knockout background
# T6 construct: host or cells: THP-1-Dual KI-hSTING-R232
# T6 sequence (Q86WV6 whole entry H232R): as the sequence (Q86WV6 whole entry H232R) above
# Experimental: HEK293T cells were procured from ATCC. THP-1 and THP-1-Dual KI-hSTING-R232 cells which contained the R232 version of STING was knocked in to THP1 cells in which the HAQ version was ablated, were procured from Invivogen, CA, USA.
# as §1, with “(Millipore). […] Anti-rabbit HRP label secondary antibody (Abcam) and Clarity Max™ western ECL substrate (Biorad—cat# 1705062) were used for visualization of bands using a BioRad XRS plus imager.” for “(Millipore).”
# [12] = target: H232 variant of human STING (Homo sapiens, UniProt Q86WV6); assay: Luciferase (ISRE.ISG reporter) assay in HEK293T cells stably expressing H232 hSTING; format: cell-based; conditions: ISRE.ISG54 luciferase reporter, 18 hours, read-out: estimated EC50, H232 variant
# From the text: as §2, with “cells.” for “cells. HEK293T cells stably expressing N-His R232.hSTING were generated by the following described method. N-His R232.hSTING.pcDNA Myc B plasmid was transfected into HEK293T cells using Lipofectamine reagent (Invitrogen) and the transfected cells were selected under Hygromycin.”
# […] clonally selected HEK293T-hSTING-Luciferase cells or control HEK293T-Luciferase cells were seeded in 384-well plates in growth medium and stimulated with known STING agonists or novel compounds. Supernatants were removed after 20 hours of treatment and secretory reporter gene activity was measured using the Quanti-Luc detection system (Invivogen) on a Spectramax i3X luminometer.
# [13] = target: R232 STING (R232-HEK293T cells) (Homo sapiens, UniProt Q86WV6, H232R); assay: Ligand induced change in STING melting temperature, R232-HEK293T whole cells; conditions: whole cells (S8 and S9 Figs)
# Chain of R232 STING (R232-HEK293T cells) (Q86WV6 whole entry H232R): as above
# Experimental: Two sources of STING (ER fraction of N-His R232.hSTING HEK293T and R232.hSTING HEK293T whole cells) were used for melting temperature experiments. […] (b) 5 x 10^5 R232.hSTING cells were seeded in 24-well plates in 500 μl growth medium and stimulated with serially diluted concentrations of agonist. After 2hr of stimulation cells were harvested through centrifugation and 20 μl cells suspensions were transferred into 0.2 ml PCR-tubes and heated as above. All procedures were identical post-heating of samples. […] Precipitated proteins were separated from the soluble fraction by centrifugation at 21000g for 20 min at 4 °C. Extracted soluble protein was electrophoresed in 10% SDS-PAGE gels and transferred onto Immobilon-P membranes (Millipore). Blots were incubated with antibodies specific for total STING (Cell Signaling).
# T1 sequence (Q86WV6 whole entry R71H/G230A/R293Q): as the sequence (Q86WV6 whole entry H232R) above, with R71H, G230A, R232H, R293Q counted along it
smiles,measurement,setting,value
"O=C(NCc1ccco1)c1ccc2c(c1)N(Cc1c(F)cccc1Cl)C(=O)CS2 [Compound G10, 4-(2-Chloro-6-fluorobenzyl)-N-(furan-2-ylmethyl)-3-oxo-3,4-dihydro-2H-benzo[b][1,4]thiazine-6-carboxamide]","phosphorylation of STING and IRF3 (pSTING, pIRF3) in THP1 cells",[1],unable to detect either pSTING or pIRF3
same,direct engagement with ligand binding domain of R232 STING (DSF),[2],no evidence of direct engagement
same,phosphorylated hSTING (and mIRF3) in CT26 cells overexpressing R232.hSTING,[3],significant amounts
same,activation of IRF3 or NFκB linked reporters in THP1,[4],unable to activate
same,solubility,[5],20 µM
same,effect on TBK-1 enzyme,[6],does not inhibit or activate
same,"phosphorylation of mSTING or mIRF3, CT26 cells overexpressing mSTING",[7],did not lead to phosphorylation
same,activity against the HAQ variant,[8],less active
same,EC50,"[9]; HEK293T cells expressing R232 hSTING, luciferase reporter, read-out: HEK.R232 EC50",2.49 µM
same,EC50,"[9]; ISRE.ISG54 luciferase reporter, HEK293T, 18 hours, read-out: estimated EC50, R232 variant",2.5 µM
same,"phosphorylation of mSTING or mIRF3, parent CT26 line",[10],did not lead to phosphorylation
same,phosphorylation of STING and IRF3 in THP1-R232 cells,[11],led to phosphorylation of STING and IRF3
same,EC50,[12],4.3 µM
same,"ligand induced change in STING melting temperature, R232-HEK293T cells",[13],did not demonstrate a significant ligand induced change
